In PMC2801429 (Journal of Alzheimer's disease : JAD, 2009):
Entries after “also recorded” stand apart in the source; their conditions may differ. Marks after values point to notes of the source that are not given here.

Assays:
[1] = Plasma pharmacokinetics of GSPE phenolic constituents after intragastric gavage; format: in vivo, Sprague Dawley rats; conditions: for Increase of total (free plus methylated) C AUC0-8h: rats; for Detection in rat plasma: acute oral administration of GSPE; for AUC(0-8h) / Cmax / Tmax: rat plasma, mean ± SEM
[2] = Brain deposition of GSPE phenolic constituents; format: in vivo, Sprague Dawley rats; conditions: for Detection in brain tissue: rats; for Concentration in brain tissue: rats administered GSPE for 10 days (dose escalation, last dose 150 mg/kg BW), perfused brain, mean ± SEM
[3] = acute and single dose studies; cited from earlier work
[4] = humans; four week multiple dose administration; cited from earlier work
[5] = single intragastric gavage 50 mg GSE/kg BW
[6] = single intragastric gavage 100 mg GSE/kg BW
[7] = single intragastric gavage 150 mg GSE/kg BW
[8] = 10 day repeated GSPE pretreatment prior to pharmacokinetic dose
[9] = single acute GSPE dose (50, 100 or 150 mg/kg BW)

With Oc1cc(O)c2c(c1)OC(c1ccc(O)c(O)c1)C(O)C2 (single isomer, unassigned; (+)) [C, (+)-catechin] the “Increase of total (free plus methylated) C AUC0-8h” value ([1]; 50 to 100 mg/kg BW dose) was 78%, the “Increase of total (free plus methylated) C AUC0-8h” value ([1]; 100 to 150 mg/kg BW dose) was 106% and the “Detection in rat plasma” value [1] was “detected”. The “AUC(0-8h)” value [1, 5] was 398.5 ± 80.5 ^a ng/mL*h, the Cmax [1, 5] was 207.5 ± 34.8 ^a ng/mL and the Tmax [1, 5] was 1.7 ± 0.7 h. For the same molecule, the “AUC(0-8h)” value [1, 6] was 606.1 ± 64.6 ^a ng/mL*h, the Cmax [1, 6] was 289.9 ± 37.2 ^a ng/mL and the Tmax [1, 6] was 1.8 ± 0.2 h. For the same molecule, the “AUC(0-8h)” value [1, 7] was 1168.2 ± 143.6 ^b ng/mL*h, the Cmax [1, 7] was 442.4 ± 49.1 ^b ng/mL and the Tmax [1, 7] was 1.1 ± 0.2 h. For the same molecule, the “Detection in brain tissue” value [2, 8] was “detectable levels”, the “Concentration in brain tissue” value [2] was 576.7 ± 227.7 pg/g and the “Detection in brain tissue” value [2, 9] was “not detectable”. The Bioavailability [3] was < 2 % of oral dose.
With COc1cc([C@H]2Oc3cc(O)cc(O)c3C[C@@H]2O)ccc1O [3′-OMeC, 3′-O-methylcatechin] the “AUC(0-8h)” value [1, 5] was 44.1 ± 4.9 ^a ng/mL*h, the Cmax [1, 5] was 22.7 ± 3.5 ^a ng/mL and the Tmax [1, 5] was 1.0 ± 0.0 h. The “AUC(0-8h)” value [1, 6] was 184.8 ± 45.3 ^a ng/mL*h, the Cmax [1, 6] was 75.5 ± 14.0 ^b ng/mL and the Tmax [1, 6] was 1.4 ± 0.2 h. The “AUC(0-8h)” value [1, 7] was 465.1 ± 45.1 ^b ng/mL*h, the Cmax [1, 7] was 129.3 ± 13.2 ^c ng/mL and the Tmax [1, 7] was 1.3 ± 0.2 h. For the same molecule, the “Detection in brain tissue” value [2, 8] was “Trace but not quantifiable levels”.
For COc1cc([C@H]2Oc3cc(O)cc(O)c3C[C@H]2O)ccc1O [3′-OMeEC, 3′-O-methylepicatechin], the “AUC(0-8h)” value [1, 5] was 60.5 ± 4.1 ^a ng/mL*h, the Cmax [1, 5] was 36.8 ± 5.8 ^a ng/mL and the Tmax [1, 5] was 1.0 ± 0.0 h. For the same molecule, the “AUC(0-8h)” value [1, 6] was 266.6 ± 61.4 ^b ng/mL*h, the Cmax [1, 6] was 105.9 ± 22.0 ^a ng/mL and the Tmax [1, 6] was 1.5 ± 0.2 h. The “AUC(0-8h)” value [1, 7] was 639.5 ± 67.0 ^c ng/mL*h, the Cmax [1, 7] was 167.7 ± 19.6 ^a ng/mL and the Tmax [1, 7] was 1.3 ± 0.2 h. The “Detection in brain tissue” value [2, 8] was “Trace but not quantifiable levels”.
With Oc1cc(O)c2c(c1)O[C@H](c1ccc(O)c(O)c1)[C@H](O)C2 [EC, (−)-epicatechin] the “Detection in rat plasma” value [1] was “detected”, the “Detection in brain tissue” value [2, 8] was “detectable levels” and the “Concentration in brain tissue” value [2] was 290.7 ± 45.9 pg/g. For the same molecule, the “Detection in brain tissue” value [2, 9] was “not detectable” and the Bioavailability [3] was < 2 % of oral dose.
In the case of O=C(O[C@@H]1Cc2c(O)cc(O)cc2O[C@@H]1c1cc(O)c(O)c(O)c1)c1cc(O)c(O)c(O)c1 [EGCG, epigallocatechin-gallate], the “Improvement of bioavailability by multiple dosing” value [4] is given as over 60%.
In the case of O=C(O)c1cc(O)c(O)c(O)c1 [GA, Gallic acid], the “Detection in brain tissue” value [2, 8] is listed as “detectable levels; also recorded: trace levels”, the “Detection in brain tissue” value [2, 9] is listed as “No detectable amounts” and the Bioavailability [3] is listed as < 2 % of oral dose.
